Reference: patent US9131690B2, “Macrocyclic picolinamides as fungicides” (Dow AgroSciences LLC, priority 2012, dated 2015)
Read-outs that look alike come from different tables or passages of the source.

Tests used:
[1] = system: Puccinia triticina. Synonym: Puccinia recondite f. sp. tritici; assay: Fungicidal activity: Wheat Brown Rust (PUCCRT), wheat plants variety Yuma; type: in vivo; design: key to PUCCRT 3DC Disease Control: A: 50-100; B: More than 0-Less than 50; C: Not Tested; D: No activity noticed in this bioassay; conditions: for pest or weed control at 100 ppm: Puccinia triticina; for PUCCRT 3DC Disease Control: 100 ppm
Experimental: Evaluation of Fungicidal Activity: Wheat Brown Rust (Puccinia triticina. Synonym: Puccinia recondite f. sp. tritici; Bayer Code PUCCRT) Wheat plants (variety Yuma) were grown from seed in a greenhouse in 50% mineral soil/50% soil-less Metro mix until the first leaf was fully emerged, with 7-10 seedlings per pot. These plants were inoculated with an aqueous spore suspension of Puccinia recondite f. sp. tritici either prior to or after fungicide treatments. After inoculation the plants were kept in 100% relative humidity overnight to permit spores to germinate and infect the leaf. The plants were then transferred to a greenhouse set at 24 C for disease to develop.

[2] = system: Mycosphaerella graminicola; Anamorph: Septoria tritici; assay: Fungicidal activity: Leaf Blotch of Wheat (SEPTTR), wheat plants variety Yuma; type: in vivo; conditions: Zymoseptoria tritici
Experimental: Evaluation of Fungicidal Activity: Leaf Blotch of Wheat (Mycosphaerella graminicola; Anamorph: Septoria tritici; Bayer Code […]) Wheat plants (variety Yuma) were grown from seed in a greenhouse in 50% mineral soil/50% soil-less Metro mix until the first leaf was fully emerged, with 7-10 seedlings per pot. These plants were inoculated with an aqueous spore suspension of Septoria tritici either prior to or after fungicide treatments. After inoculation the plants were kept in 100% relative humidity (one day in a dark dew chamber followed by two to three days in a lighted dew chamber) to permit spores to germinate and infect the leaf. The plants were then transferred to a greenhouse at 20° C. for disease to develop.

[3] = 24 h, 1 Day Protectant, read-out: PUCCRT 1DP Disease Control
[4] = 72 h, 3 Day Curative, read-out: PUCCRT 3DC Disease Control
[5] = 24 h, 1 Day Protectant, read-out: SEPTTR 1DP Disease Control
[6] = 72 h, 3 Day Curative, read-out: SEPTTR 3DC Disease Control

Row | melting point | SMILES | pest or weed control at 100 ppm [1, 3] | pest or weed control at 100 ppm [1, 4] | pest or weed control at 100 ppm [2, 5] | pest or weed control at 100 ppm [2, 6] | PUCCRT 3DC Disease Control ([1]; 3 Day Curative)
1 | 158 to 161 °C | CC[C@H]1C(=O)OC[C@H](NC(=O)c2nccc(OC)c2OC(C)=O)C(=O)O[C@@H](C)[C@@H]1OC(=O)C(C)C [Compound 69] | 50 to 100% | 50 to 100% | 50 to 100% | 50 to 100% | –
2 | – | COc1ccnc(C(=O)N[C@H]2COC(=O)[C@H](CCOC(=O)C(C)C)[C@@H](OC(=O)C(C)C)[C@H](C)OC2=O)c1O [Compound 36] | 50 to 100% | – | 50 to 100% | 0 to 50% | D
3 | – | COc1ccnc(C(=O)N[C@H]2COC(=O)[C@H](Cc3ccc(F)cc3F)[C@@H](OC(=O)C(C)C)[C@H](C)OC2=O)c1OCOC(=O)C(C)C [Compound 21] | 50 to 100% | 50 to 100% | 50 to 100% | 50 to 100% | –
4 | 195 to 196 °C | COc1ccnc(C(=O)N[C@H]2COC(=O)[C@H](CC(F)F)[C@@H](OC(=O)C(C)C)[C@H](C)OC2=O)c1O [Compound 52, (3S,6S,7R,8R)-8-(2,2-difluoroethyl)-3-(3-hydroxy-4-methoxypicolinamido)-6-methyl-4,9-dioxo-1,5-dioxonan-7-yl isobutyrate] | 50 to 100% | 0 to 50% | 50 to 100% | 0 to 50% | –
5 | 148 to 150 °C | COc1ccnc(C(=O)N[C@H]2COC(=O)[C@H](CSc3ccccn3)[C@@H](OC(=O)C(C)C)[C@H](C)OC2=O)c1O [Compound 65, (3S,6S,7R,8R)-3-(3-hydroxy-4-methoxypicolinamido)-6-methyl-4,9-dioxo-8-((pyridin-2-ylthio)methyl)-1,5-dioxonan-7-yl isobutyrate] | 50 to 100% | 0 to 50% | 50 to 100% | 0 to 50% | –
6 | – | COCC[C@H]1C(=O)OC[C@H](NC(=O)c2nccc(OC)c2O)C(=O)O[C@@H](C)[C@@H]1OC(=O)C(C)C [Compound 44, (3S,6S,7R,8R)-3-(3-hydroxy-4-methoxypicolinamido)-8-(2-methoxyethyl)-6-methyl-4,9-dioxo-1,5-dioxonan-7-yl isobutyrate] | 50 to 100% | 50 to 100% | 50 to 100% | 50 to 100% | –
7 | – | COc1ccnc(C(=O)N[C@H]2COC(=O)[C@H](Cc3ccc(F)cc3)[C@@H](OC(=O)C(C)C)[C@H](C)OC2=O)c1OCOC(=O)C(C)C [Compound 20] | 50 to 100% | 50 to 100% | 50 to 100% | 50 to 100% | –
8 | 169 to 170 °C | COc1ccnc(C(=O)N[C@H]2COC(=O)[C@H](CCc3cccnc3)[C@@H](OC(=O)C(C)C)[C@H](C)OC2=O)c1O [Compound 59] | 50 to 100% | 0 to 50% | 0 to 50% | 0 to 50% | –
9 | – | CCC[C@H]1C(=O)OC[C@H](NC(=O)c2nccc(OC)c2OCOC(=O)C(C)C)C(=O)O[C@@H](C)[C@@H]1OC(=O)C(C)C [Compound 34] | 50 to 100% | 50 to 100% | 50 to 100% | 50 to 100% | –
10 | 148 to 155 °C | COc1ccnc(C(=O)N[C@H]2COC(=O)[C@H](Cc3cccnc3)[C@@H](OC(=O)C(C)C)[C@H](C)OC2=O)c1O [Compound 2] | 50 to 100% | 50 to 100% | 50 to 100% | 50 to 100% | –
11 | 138 to 140 °C | COC(=O)C[C@H]1C(=O)OC[C@H](NC(=O)c2nccc(OC)c2O)C(=O)O[C@@H](C)[C@@H]1OC(=O)C(C)C [Compound 50] | 50 to 100% | 50 to 100% | 50 to 100% | 50 to 100% | –
12 | 169 to 170 °C | COc1ccnc(C(=O)N[C@H]2COC(=O)[C@H](CC(=O)OC(C)C)[C@@H](OC(=O)C(C)C)[C@H](C)OC2=O)c1O [Compound 49] | 50 to 100% | 50 to 100% | 50 to 100% | 50 to 100% | –
13 | 103 to 105 °C | COc1ccnc(C(=O)N[C@H]2COC(=O)[C@H](CCOC=O)[C@@H](OC(=O)C(C)C)[C@H](C)OC2=O)c1O [Compound 51, (3S,6S,7R,8R)-8-(2-(formyloxy)ethyl)-3-(3-hydroxy-4-methoxypicolinamido)-6-methyl-4,9-dioxo-1,5-dioxonan-7-yl isobutyrate] | 50 to 100% | – | 0 to 50% | 0 to 50% | D
14 | 169 to 175 °C | COc1ccnc(C(=O)N[C@H]2COC(=O)[C@H](Cc3cncnc3)[C@@H](OC(=O)C(C)C)[C@H](C)OC2=O)c1O [Compound 14] | 50 to 100% | 50 to 100% | 0 to 50% | 0 to 50% | –
15 | 142 to 144 °C | COc1ccnc(C(=O)N[C@H]2COC(=O)[C@H](CCc3ccc(F)cc3)[C@@H](OC(=O)C(C)C)[C@H](C)OC2=O)c1O [Compound 58] | 50 to 100% | 50 to 100% | 50 to 100% | 0 to 50% | –
16 | 199 to 200 °C | COc1ccnc(C(=O)N[C@H]2COC(=O)[C@H](CCOC(=O)c3ccc(C(F)(F)F)cc3)[C@@H](OC(=O)C(C)C)[C@H](C)OC2=O)c1OC(C)=O [Compound 68] | 0 to 50% | 0 to 50% | 0 to 50% | 0 to 50% | –
17 | – | COc1ccnc(C(=O)N[C@H]2COC(=O)[C@H](CCOC(=O)c3cc(OC)c(OC)c(OC)c3)[C@@H](OC(=O)C(C)C)[C@H](C)OC2=O)c1O [Compound 41] | 50 to 100% | – | 0 to 50% | 0 to 50% | D
18 | – | COc1ccnc(C(=O)N[C@H]2COC(=O)[C@H](CCc3ccccc3)[C@@H](OC(=O)C(C)C)[C@H](C)OC2=O)c1OCOC(=O)C(C)C [Compound 32] | 50 to 100% | 50 to 100% | 50 to 100% | 50 to 100% | –
19 | – | COCC[C@H]1C(=O)OC[C@H](NC(=O)c2nccc(OC)c2OCOC(=O)C(C)C)C(=O)O[C@@H](C)[C@@H]1OC(=O)C(C)C [Compound 28] | 50 to 100% | 50 to 100% | 50 to 100% | 50 to 100% | –
20 | – | COc1ccnc(C(=O)N[C@H]2COC(=O)[C@H](CCOC(=O)C(C)(C)C)[C@@H](OC(=O)C(C)C)[C@H](C)OC2=O)c1O [Compound 37] | 50 to 100% | 0 to 50% | 50 to 100% | 0 to 50% | –
21 | – | COc1ccc(C[C@H]2C(=O)OC[C@H](NC(=O)c3nccc(OC)c3O)C(=O)O[C@@H](C)[C@@H]2OC(=O)C(C)C)cc1 [Compound 8] | 50 to 100% | 50 to 100% | 50 to 100% | 0 to 50% | –
22 | – | COc1ccnc(C(=O)N[C@H]2COC(=O)[C@H](CCC3CCCCC3)[C@@H](OC(=O)C(C)C)[C@H](C)OC2=O)c1O [Compound 62] | 50 to 100% | 0 to 50% | 50 to 100% | 0 to 50% | –
23 | – | COc1ccnc(C(=O)N[C@H]2COC(=O)[C@H](CCOCc3ccccc3)[C@@H](OC(=O)C(C)C)[C@H](C)OC2=O)c1OCOC(=O)C(C)C [Compound 29] | 50 to 100% | 50 to 100% | 50 to 100% | 0 to 50% | –
24 | – | COc1ccnc(C(=O)N[C@H]2COC(=O)[C@H](CC(=O)OC(C)(C)C)[C@@H](OC(=O)C(C)C)[C@H](C)OC2=O)c1OCOC(=O)C(C)C [Compound 30] | 50 to 100% | 50 to 100% | 50 to 100% | 50 to 100% | –
25 | – | COc1ccnc(C(=O)N[C@H]2COC(=O)[C@H](CCc3cccnc3)[C@@H](OC(=O)C(C)C)[C@H](C)OC2=O)c1OCOC(=O)C(C)C [Compound 31] | 50 to 100% | 0 to 50% | 0 to 50% | 0 to 50% | –
26 | – | CCCCCCC[C@H]1C(=O)OC[C@H](NC(=O)c2nccc(OC)c2OCOC(=O)C(C)C)C(=O)O[C@@H](C)[C@@H]1OC(=O)C(C)C [Compound 33] | 50 to 100% | 50 to 100% | 50 to 100% | 50 to 100% | –
